Laboratory results taken from the supplement of paper PMC8882468.
± gives the standard deviation of the averaged measurements.

Experiments:
Test in all cases: CTG-3D luminescence at 96 h relative to day-0 seeding control (ratio to day 0); higher = more growth / less cytotoxicity; PDxO 3D drug screen, 96 h, CTG-3D normalised to day-0 seeding control.
HCI-024 = tested on: HCI-024 (organoid from a breast cancer xenograft)
HCI-012 = tested on: HCI-012 (organoid from a breast cancer xenograft)
HCI-003.E2 = tested on: HCI-003.E2 (organoid from an ER-positive breast cancer xenograft)
MDA-MB-231 = tested on: MDA-MB-231
HCI-027 = tested on: HCI-027 (organoid from a triple-negative breast cancer xenograft)
HCI-019 = tested on: HCI-019 (organoid from a triple-negative breast cancer xenograft)
HCI-023 = tested on: HCI-023 (organoid from a triple-negative breast cancer xenograft)

NC1(C(=O)N[C@@H](CCO)c2ccc(Cl)cc2)CCN(c2nc[nH]c3nccc2-3)CC1 [capivasertib]
CTG-3D luminescence at 96 h
Settings	12.5 pM	0.00025 µM	0.005 µM	0.1 µM	1 µM	10 µM	100 µM	625 fM
HCI-012, days in culture: 143	2.02	1.95	1.78	2.01	1.55	0.931	0.0899	1.91
HCI-012, days in culture: 162	2.5	2.27	1.88	2.92	1.51	1.15	0.236	3.5
HCI-012, days in culture: 201	2.73	2.11	1.59	1.5	1.61	0.543	0.269	1.74
HCI-019, days in culture: 110	1.22	1.74	1.4	1.97	0.842	1.18	0.332	1.92
HCI-019, days in culture: 131	2.99	3.67	2.98	3.31	1.45	1.63	0.521	4.08
HCI-019, days in culture: 152	2.96	2.9	2.96	1.68	0.946	0.895	0.274	2.6
HCI-023, days in culture: 111	1.51	1.39	0.992	0.931	0.434	0.366	0.16	1.39
HCI-023, days in culture: 128	1.4 ± 0.31	1.63 ± 0.23	1.43 ± 0.17	1.22 ± 0.094	0.571 ± 0.062	0.658 ± 0.14	0.277 ± 0.0088	1.75 ± 0.15
HCI-024, days in culture: 105	1.73	1.84	1.39	1.47	0.926	0.839	0.401	2.06
HCI-024, days in culture: 122	2.22	2.39	1.78	1.68	1.09	1.35	0.518	2.23
HCI-024, days in culture: 163	2.16	1.74	1.93	2.41	1.56	1.32	0.629	2.73
HCI-027, days in culture: 176	2.31	1.3	2.32	1.05	1.12	0.758	0.0952	2.13
HCI-027, days in culture: 194	1.58	1.48	1.43	1.57	1.36	1.2	0.0815	1.55
HCI-027, days in culture: 201	1.67	1.8	1.88	2.17	1.71	0.976	0.0625	1.6

CTG-3D luminescence at 96 h
Settings	12.5 pM	0.00025 µM	0.005 µM	0.1 µM	1 µM	10 µM	100 µM	625 fM
HCI-003.E2	2.4 ± 0.86	2.22 ± 0.62	2.03 ± 0.41	1.76 ± 0.28	0.832 ± 0.14	0.479 ± 0.06	0.0376 ± 0.0065	2.12 ± 0.16
MDA-MB-231	4.33 ± 1.4	4.28 ± 1.4	4.42 ± 1.4	4.28 ± 1.3	4.07 ± 1.2	3.88 ± 1	2.39 ± 0.74	4.44 ± 1.4
